The results in this text go back to US20230135093A1, “TRIAZOLYL DERIVATIVES AS GABA A ALPHA5 PAM” (Hoffmann-La Roche Inc., priority 2020, published 2023).

Experiment [1] has as its target T1, h-GABA-A α5β3γ2 (Homo sapiens, UniProt P18507+P31644).
T1 construct: expressed in transfected cells; host or cells: Xenopus laevis oocytes, micro-injected with subunit RNA
Nature of the experiment: [3H]flumazenil competition binding assay on membranes of HEK293 cells expressing GABAA receptors. As to conditions: Table 1; displacement of [3H]-Flumazenil (0.5 nM), HEK293 cells expressing human receptors, means of two determinations. The protocol:
The affinity of compounds at GABAA receptor subtypes was measured by competition for [3H]flumazenil (85 Ci/mmol; Roche) binding to HEK293 cells expressing rat (stably transfected) or human (transiently transfected) receptors of composition α1β3γ2, α2β3γ2, α3β3γ2 and α5β3γ2.
Cell pellets were suspended in Krebs-tris buffer (4.8 mM KCl, 1.2 mM CaCl2, 1.2 mM MgCl2, 120 mM NaCl, 15 mM Tris; pH 7.5; binding assay buffer), homogenized by polytron for ca. 20 sec on ice and centrifuged for 60 min at 4° C. (50000 g; Sorvall, rotor: SM24=20000 rpm). The cell pellets were resuspended in Krebs-tris buffer and homogenized by polytron for ca. 15 sec on ice. Protein was measured (Bradford method, Bio-Rad) and aliquots of 1 mL were prepared and stored at −80° C.
Radioligand binding assays were carried out in a volume of […] (96-well plates) which contained […] of cell membranes, [^3H]-Flumazenil at a concentration of 1 nM for α1, α2, α3 subunits and 0.5 nM for α5 subunits and the test compound in the range of […]. Nonspecific binding was defined by 10^−5 M diazepam and typically represented less than 5% of the total binding. Assays were incubated to equilibrium for 1 hour at 4° C. and harvested onto GF/C uni-filters (Packard) by filtration using a Packard harvester and washing with ice-cold wash buffer (50 mM Tris; pH 7.5). After drying, filter-retained radioactivity was detected by liquid scintillation counting. Ki values were calculated using Excel-Fit (Microsoft) and are the means of two determinations.
In a preferred embodiment the compounds of the invention are binding selective for the α5 subunit relative to the α1, α2 and α3 subunit. Representative test results, obtained by the above described assay measuring binding affinity to HEK293 cells expressing human (h) receptors, are shown in the Table below.

In experiment [2] the target is T1, h-GABA-A α5β3γ2. Description: Two-electrode voltage clamp electrophysiology in Xenopus oocytes expressing GABAA receptors (modulation of GABA EC20 current). The class given is cell-based. As to conditions: for Efficacy (GABA) % / Fold increase h-GABA-A α5β3γ2 oocyte: Table 1; for Efficacy (GABA) %: % modulation of GABA EC20 = 100*(Fold increase-1); for Fold increase h-GABA-A α5β3γ2 oocyte: Xenopus oocytes, GABA EC20, test compound at approximatively 30 fold its Ki; for Fold increase: positive controls. The protocol: Xenopus laevis oocytes at maturation stages V-VI were used for the expression of cloned mRNA encoding GABAA receptor subunits. Oocytes ready for RNA micro-injection were bought from Ecocyte, Castrop-Rauxel, Germany and stored in modified Barth's medium (composition in mM: NaCl 88, KCl 1, NaHCO3 2.4, HEPES 10, MgSO4 0.82, CaNO3 0.33, CaCl2 0.33, pH=7.5) at 20° C. until the experiment.
Oocytes were plated in 96-well plates to be used in an automated instrument (Robo-ocyte, MultiChannelSystems, Reutlingen, Germany) for microinjection and electrophysiological recordings. Approximately 50 nl of an aqueous solution containing the RNA transcripts for the subunits of the desired GABAA receptor was injected into each oocyte. RNA concentrations ranged between 0.3 and 16 ng/μl/subunit and were adjusted in pilot experiments to obtain GABA responses of a suitable size and a maximal effect of the reference modulator, Beta-CCM (3-CCM), a betacarboline negative allosteric modulator (NAM) at the GABAA receptor benzodiazepine (BZD) binding site or Midazolam, a benzodiazepine positive allosteric modulator (PAM) at the GABAA receptor benzodiazepine (BZD) binding site. The concentration of the γ2 subunit encoding RNA usually was 5- to 10-fold higher than the RNAs encoding the other subunits. Oocytes were kept in modified Barth's medium (composition in mM: NaCl 88, KCl 1, NaHCO3 4, HEPES 10, MgSO4 0.82, CaNO3 0.33, CaCl2 0.33, pH=7.5) at 20° C. until the experiment.
Electrophysiological experiments were performed on days 3 to 5 after the micro-injection of mRNA. During the experiment the oocytes were constantly superfused by a solution containing (in mM) NaCl 90, KCl 1, HEPES 5, MgCl2 1, CaCl2 1 (pH 7.4). Oocytes were impaled by two glass microelectrodes (resistance: 0.4 MQ) which were filled with a solution containing KCl 1M+K-acetate 1.5 M and voltage-clamped to −80 mV. The recordings were performed at room temperature using the Roboocyte two-electrode voltage clamp system (Multichannelsystem). After an initial equilibration period of 1.5 min GABA was added for 1.5 min at a concentration evoking approximately 20% of a maximal current response (EC20). After another rest interval of 2.5 min GABA was again added evoking a response of similar amplitude and shape. 0.5 min after the onset of this second GABA application the test compound, at a concentration corresponding to approximatively 30 fold its Ki, was added while GABA was still present. Current traces were recorded at a digitization rate of 10 Hz during and shortly before and after the GABA application.
Each compound and concentration was tested on at least 3 oocytes. Different oocytes were used for different compound concentrations. β-CCM, a negative allosteric modulator, or Midazolam, a positive allosteric modulators, were tested on a few (3-6) oocytes on each 96-well plate for a positive control at a maximally effective. β-CCM inhibited the GABA-evoked current by approximatively 50% (Fold increase 0.5), while Midazolam potentiated the GABA-induced current by approximatively 150% (Fold increase 2.5).
For the analysis, the digitized current traces of the first and second GABA response were superimposed and, if necessary, rescaled to equal maximal amplitudes. The ratio between the two responses during the time interval of test compound application was calculated point by point. The extremum of the resulting “ratio trace” was taken as the efficacy (“Fold increase”) of the compound expressed as “% modulation of GABA EC20” (100*(Fold increase-1)).

[3] abbreviates: positive control, maximally effective concentration, 3-6 oocytes per 96-well plate.
Where [4] appears, read: maximally effective concentration.

pKi: −log10 of the molar value.

As a reminder, the pKi is −log10 of the Ki, conventionally taken in molar units. In experiment [1], `Cc1ccc(-c2nnn(C)c2Cn2ncc(N3C[C@H](C)O[C@@H](C)C3)cc2=O)cn1` (racemic) [Example 12, 2-[[3-methyl-5-(6-methyl-3-pyridyl)triazol-4-yl]methyl]-5-[rac-(2S,6S)-2,6-dimethylmorpholin-4-yl]pyridazin-3-one] had a pKi of 8.59. Further, in experiment [2], the “Efficacy (GABA) %” value came out at 191% and the “Fold increase h-GABA-A α5β3γ2 oocyte” value stood at 2.91.
In the case of `Cc1nnn(-c2ccc(Cl)cc2F)c1Cn1ncc(N2C[C@H](C)O[C@@H](C)C2)cc1=O` (racemic) [Example 37, 2-[[3-(4-chloro-2-fluoro-phenyl)-5-methyl-triazol-4-yl]methyl]-5-[rac-(2S,6S)-2,6-dimethylmorpholin-4-yl]pyridazin-3-one], the pKi in experiment [1] is 8.44. Also, in experiment [2], the “Efficacy (GABA) %” value was determined as 135% and the “Fold increase h-GABA-A α5β3γ2 oocyte” value is recorded as 2.35.
In the case of `Cc1ccc(-n2nnc(C)c2Cn2ncc(N3C[C@@H](C)O[C@@H](C)C3)cc2=O)cn1` [Example 1, 5-(cis-2,6-dimethylmorpholin-4-yl)-2-((5-methyl-3-(6-methylpyridin-3-yl)triazol-4-yl)methyl)pyridazin-3-one], the pKi in experiment [1] was 7.46. In addition, in experiment [2], the “Efficacy (GABA) %” value worked out at 190% and the “Fold increase h-GABA-A α5β3γ2 oocyte” value was 2.9.
As for `Cc1ccc(-c2nnn(C)c2Cn2ncc(N3C[C@@H](C)O[C@@H](C)C3)cc2=O)cn1` [Example 2, 5-(cis-2,6-dimethylmorpholin-4-yl)-2-((3-methyl-5-(6-methylpyridin-3-yl)triazol-4-yl)methyl)pyridazin-3-one], the negative-log Ki (pKi) in experiment [1] was 8.33. Besides, the “Efficacy (GABA) %” value in experiment [2] is listed as 230%.
Molecule `C[C@@H]1CN(c2cnn(Cc3c(-c4ccc(Cl)cc4F)nnn3C)c(=O)c2)C[C@H](C)O1` [Example 3, 2-((5-(4-chloro-2-fluoro-phenyl)-3-methyl-triazol-4-yl)methyl)-5-(cis-2,6-dimethylmorpholin-4-yl)pyridazin-3-one] gave a pKi in experiment [1] of 8.92. Further, in experiment [2], the “Efficacy (GABA) %” value was determined as 124% and the “Fold increase h-GABA-A α5β3γ2 oocyte” value amounted to 2.24.
Molecule `Cc1nnn(-c2ccc(Cl)cc2F)c1Cn1ncc(N2CCOCC2)cc1=O` [Example 4, 2-((3-(4-chloro-2-fluoro-phenyl)-5-methyl-triazol-4-yl)methyl)-5-morpholino-pyridazin-3-one] had a pKi in experiment [1] of 7.81. In addition, in experiment [2], the “Efficacy (GABA) %” value turned out to be 97% and the “Fold increase h-GABA-A α5β3γ2 oocyte” value was 1.97.
`Cc1nnn(-c2ccc(Cl)cc2F)c1Cn1ncc(N(C)C)cc1=O` [Example 5, 2-((3-(4-chloro-2-fluoro-phenyl)-5-methyl-triazol-4-yl)methyl)-5-(dimethylamino)pyridazin-3-one]: the pKi in experiment [1] was 7.74. In addition, in experiment [2], the “Efficacy (GABA) %” value amounted to 58% and the “Fold increase h-GABA-A α5β3γ2 oocyte” value was determined as 1.58.
`Cc1nnn(-c2ccc(Cl)cc2F)c1Cn1ncc(N2CCN(C(=O)C3CC3)CC2)cc1=O` [Example 6, 2-((3-(4-chloro-2-fluoro-phenyl)-5-methyl-triazol-4-yl)methyl)-5-(4-(cyclopropane-carbonyl)piperazin-1-yl)pyridazin-3-one] gave a pKi in experiment [1] of 7.14. Also, in experiment [2], the “Efficacy (GABA) %” value came to 121% and the “Fold increase h-GABA-A α5β3γ2 oocyte” value is listed as 2.21.
As for `Cc1nnn(-c2ccc(Cl)cc2F)c1Cn1ncc(N2C[C@@H](C)O[C@@H](C)C2)cc1=O` [Example 7, 2-((3-(4-chloro-2-fluoro-phenyl)-5-methyl-triazol-4-yl)methyl)-5-((2S,6R)-2,6-dimethylmorpholin-4-yl)pyridazin-3-one], in experiment [1], the pKi is 8.24. For the same molecule, in experiment [2], the “Efficacy (GABA) %” value is recorded as 164% and the “Fold increase h-GABA-A α5β3γ2 oocyte” value turned out to be 2.64.
Consider `Cc1ccc(-c2nnn(C)c2Cn2ncc(N3CCCC3)cc2=O)cn1` [Example 8, 2-((3-methyl-5-(6-methyl-3-pyridyl)triazol-4-yl)methyl)-5-pyrrolidin-1-yl-pyridazin-3-one], for which the pKi in experiment [1] was 7.68. Further, in experiment [2], the “Efficacy (GABA) %” value worked out at 130% and the “Fold increase h-GABA-A α5β3γ2 oocyte” value stood at 2.3.
Consider `Cc1ccc(-c2nnn(C)c2Cn2ncc(N3CCOCC3)cc2=O)cn1` [Example 9, 2-[[3-methyl-5-(6-methyl-3-pyridyl)triazol-4-yl]methyl]-5-morpholino-pyridazin-3-one], for which the pKi in experiment [1] is 7.77. For the same molecule, in experiment [2], the “Efficacy (GABA) %” value is 135% and the “Fold increase h-GABA-A α5β3γ2 oocyte” value was 2.35.
`Cc1ccc(-c2nnn(C)c2Cn2ncc(N3CCC(C)(C)C3)cc2=O)cn1` [Example 10, 5-(3,3-dimethylpyrrolidin-1-yl)-2-[[3-methyl-5-(6-methyl-3-pyridyl)triazol-4-yl]methyl]pyridazin-3-one] gave a pKi in experiment [1] of 8.36. For the same molecule, in experiment [2], the “Efficacy (GABA) %” value is reported as 201% and the “Fold increase h-GABA-A α5β3γ2 oocyte” value is on record as 3.01.
As for `Cc1ccc(-c2nnn(C)c2Cn2ncc(N3CCOC(C)(C)C3)cc2=O)cn1` [Example 11, 5-(2,2-dimethylmorpholin-4-yl)-2-[[3-methyl-5-(6-methyl-3-pyridyl)triazol-4-yl]methyl]pyridazin-3-one], in experiment [1], the pKi is 8.92. Further, in experiment [2], the “Efficacy (GABA) %” value stood at 48% and the “Fold increase h-GABA-A α5β3γ2 oocyte” value amounted to 1.48.
In experiment [1], `Cc1nnn(-c2ccc(Cl)cc2)c1Cn1ncc(N(C)C)cc1=O` [Example 13, 2-[[3-(4-chlorophenyl)-5-methyl-triazol-4-yl]methyl]-5-(dimethylamino)pyridazin-3-one] showed a pKi of 7.50. In addition, in experiment [2], the “Efficacy (GABA) %” value came out at 31% and the “Fold increase h-GABA-A α5β3γ2 oocyte” value is on record as 1.31.
In experiment [1], `Cc1nnn(-c2ccc(Cl)cc2)c1Cn1ncc(N2CCNCC2)cc1=O` [Example 14, 2-[[3-(4-chlorophenyl)-5-methyl-triazol-4-yl]methyl]-5-piperazin-1-yl-pyridazin-3-one] gave a pKi of 7.40. For the same molecule, in experiment [2], the “Efficacy (GABA) %” value turned out to be 72% and the “Fold increase h-GABA-A α5β3γ2 oocyte” value turned out to be 1.72.
`Cc1ncc2n1-c1ccc(Cl)cc1C(c1ccccc1F)=NC2` [Midazolam, reference compound]: the “potentiated the GABA-induced current” value in experiment [2] (setting [3]) is recorded as ~150%. In experiment [2] (setting [4]), the Fold increase is listed as ~2.5.
In the case of `COC(=O)c1cc2c(cn1)[nH]c1ccccc12` [β-CCM, reference compound], in experiment [2] (setting [3]), the “inhibited the GABA-evoked current” value is on record as ~50%. The Fold increase in experiment [2] (setting [4]) is reported as ~0.5.
